Results as given in patent US5407815A, “R-(-)-1-(5-hydroxyhexyl)-3-methyl-7-propylxanthine, a process for its preparation and pharmaceuticals containing this compound” (Hoechst Aktiengesellschaft, priority 1989, dated 1995).

Legend:
[1] = test system: regional cerebral blood flow; assay: Regional cerebral blood flow of the cat, heat conductivity technique (heat transport number λ); type: in vivo; details: for duration of action as the half life t1/2 / Δλ% (mean percentage change of the heat transport number): anesthetized cat, 25 mg/kg intraduodenally; for Δλ% (mean percentage change of the heat transport number): suspension in 1% carboxymethylcellulose, n = 6 to 11; for conversion factor (f), based on Δλ%=1 for the racemate: intraduodenal, 25 mg/kg; for cerebral blood flow-stimulating action relative to racemate: racemate made equal to 1
Experimental: The action of compound 1 according to the invention on the regional cerebral blood flow was investigated in comparison with the racemate 2 and the S-(+)-enantiomer 3 with the aid of the heat conductivity technique according to F. A. Gibbs (Proc. Soc. exp. Biol. (N.Y.) 31 (1933), pp. 141 et seq.), H. Hensel (Naturwissenschaften 43 (1956), pp. 477 et seq.) and E. Betz (Acta Neurol. Scand. Suppl. 14 (1965), pp. 29-37) in cats of both sexes under sodium pentobarbital anesthesia (35 mg/kg i.p.). In this method, with the aid of a heat conductivity probe applied to the surface of the brain in the region of the Gyrus marginalis frontalis, the transport of heat from a point of heating to an adjacent temperature-measuring site in the probe, which is directly proportional to the level of the cerebral blood flow, is determined. The mean percentage change in the heat transport number λ after administration of the preparation is used as a measure of the increase in blood flow.
The compounds were administered intraduodenally as a suspension in 1% strength aqueous carboxymethylcellulose. The dose was 25 mg of test substance per kg of body weight. 6 to 11 individual experiments were carried out for each test preparation and the mean percentage change in the heat transport number (Δλ%) was determined from the measurement data obtained.
The melting points m.p., the enantiomeric purities e.e. (enantiomeric excess), the number of measurements n, the mean percentage change (Δλ%) of the heat transport number as a measure of the potency, the conversion factors f, based on Δλ%=1 for the racemate, and the duration of action as the half life t1/2 (min) for R-(-)-1-(5-hydroxyhexyl)-3-methyl-7-propylxanthine (1), the corresponding enantiomer S-(+)-1-(5-hydroxyhexyl)-3-methyl-7-propylxanthine (3) and the racemate (2) of the two compounds is indicated in Table 1.

cerebral blood flow = details: known from DE-C-2,366,527; cited from earlier work

In the case of `CCCn1cnc2c1c(=O)n(CCCCC(C)O)c(=O)n2C` (racemic) [Compound 2, 1-(5-hydroxyhexyl)-3-methyl-7-propylxanthine], the “duration of action as the half life t1/2” value [1] is reported as 1.67 h, the “Δλ% (mean percentage change of the heat transport number)” value [1] is reported as “+24%” and the “conversion factor (f), based on Δλ%=1 for the racemate” value [1] is reported as 1.00. The “cerebral blood flow-stimulating action relative to racemate” value [1] was 1 and the “cerebral blood flow-stimulating action (qualitative)” value (cerebral blood flow) was “cerebral blood flow-stimulating action”.
With `CCCn1cnc2c1c(=O)n(CCCC[C@@H](C)O)c(=O)n2C` [Compound 1, R-(-)-1-(5-hydroxyhexyl)-3-methyl-7-propylxanthine] the “duration of action as the half life t1/2” value [1] was 1.67 h, the “Δλ% (mean percentage change of the heat transport number)” value [1] was “+45%” and the “conversion factor (f), based on Δλ%=1 for the racemate” value [1] was 1.88. The “cerebral blood flow-stimulating action relative to racemate” value [1] was “about 2”, the “cerebral blood flow-stimulating action of R-(-)-enantiomer relative to S-(+)-antipode” value ([1]; ratio R-(-) to S-(+)) was “about three” and the “duration of action of R-(-)-compound relative to S-(+)-compound” value ([1]; ratio R-(-) to S-(+)) was “about three”.
With `CCCn1cnc2c1c(=O)n(CCCC[C@H](C)O)c(=O)n2C` [Compound 3, S-(+)-1-(5-hydroxyhexyl)-3-methyl-7-propylxanthine] the “duration of action as the half life t1/2” value [1] was 0.6 h, the “Δλ% (mean percentage change of the heat transport number)” value [1] was “+16%” and the “conversion factor (f), based on Δλ%=1 for the racemate” value [1] was 0.67. The “cerebral blood flow-stimulating action relative to racemate” value [1] was “about 0.65”.
